Assay results taken from PubChem BioAssay AID1963839 (Molecular Pharmacology Branch, DTP, NCI, 2024).

System: 817829-284-R-J1-PDC complex spheroid viability
Experiment: Anticancer human tumor 817829-284-R-J1-PDC patient-derived colon adenocarcinoma cell line growth inhibition [POLQ]
Details: for IC50: curve of first compound; for viability, T/C: stronger effect = lower value
How it was run: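 Complex spheroid viability model combining PDC tumour cells with endothelial (HUVEC) and MSC stromal cells. Novobiocin, ART-558 or RP6685 were tested singly and in combination with standard and investigational anticancer drugs. Each was titrated in half-log steps from near clinical Cmax, or from 10 microM where Cmax was unknown.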

[1] = second compound 0.0316 µM, first compound 0.0316 µM
[2] = second compound 0.0316 µM, first compound 0.1 µM
[3] = second compound 0.0316 µM, first compound 0.316 µM
[4] = second compound 0.0316 µM, first compound 1 µM
[5] = second compound 0.0316 µM, first compound 3.16 µM
[6] = second compound 0.0316 µM, first compound 10 µM
[7] = second compound 0.1 µM, first compound 0.0316 µM
[8] = second compound 0.1 µM, first compound 0.1 µM
[9] = second compound 0.1 µM, first compound 0.316 µM
[10] = second compound 0.1 µM, first compound 1 µM
[11] = second compound 0.1 µM, first compound 3.16 µM
[12] = second compound 0.1 µM, first compound 10 µM
[13] = second compound 0.316 µM, first compound 0.0316 µM
[14] = second compound 0.316 µM, first compound 0.1 µM
[15] = second compound 0.316 µM, first compound 0.316 µM
[16] = second compound 0.316 µM, first compound 1 µM
[17] = second compound 0.316 µM, first compound 3.16 µM
[18] = second compound 0.316 µM, first compound 10 µM
[19] = second compound 1 µM, first compound 0.0316 µM
[20] = second compound 1 µM, first compound 0.1 µM
[21] = second compound 1 µM, first compound 0.316 µM
[22] = second compound 1 µM, first compound 1 µM
[23] = second compound 1 µM, first compound 3.16 µM
[24] = second compound 1 µM, first compound 10 µM
[25] = second compound 3.16 µM, first compound 0.0316 µM
[26] = second compound 3.16 µM, first compound 0.1 µM
[27] = second compound 3.16 µM, first compound 0.316 µM
[28] = second compound 3.16 µM, first compound 1 µM
[29] = second compound 3.16 µM, first compound 3.16 µM
[30] = second compound 3.16 µM, first compound 10 µM
[31] = second compound 10 µM, first compound 0.0316 µM
[32] = second compound 10 µM, first compound 0.1 µM
[33] = second compound 10 µM, first compound 0.316 µM
[34] = second compound 10 µM, first compound 1 µM
[35] = second compound 10 µM, first compound 3.16 µM
[36] = second compound 10 µM, first compound 10 µM
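Note: spheroids exposed to compounds for 7 days.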
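Throughout, for viability, T/C: 100% = DMSO vehicle-treated spheroids.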

Which results are given for CCc1cc2c(N3CCc4c(cc(Cn5ccnc5)cc4-c4cn(C)nc4C(F)(F)F)C3=O)cc(C)nc2c(OC)n1 + Nc1ccc(C#CCN(C(=O)Cc2ncc(C(F)(F)F)cc2C(F)(F)F)c2ccc(F)cc2)nn1?
IC50 (second compound 0.0316 µM): 1750 nM; IC50 (second compound 0.1 µM): 2070 nM; IC50 (second compound 0.316 µM): 1650 nM; IC50 (second compound 1 µM): 2190 nM; IC50 (second compound 3.16 µM): 973 nM; IC50 (second compound 10 µM): 963 nM; viability, T/C [1]: 85.5%; viability, T/C [2]: 73.8%; viability, T/C [3]: 67.8%; viability, T/C [4]: 56.1%; viability, T/C [5]: 43.7%; viability, T/C [6]: 31.4%; viability, T/C [7]: 101%; viability, T/C [8]: 80.5%; viability, T/C [9]: 71.9%; viability, T/C [10]: 62.2%; viability, T/C [11]: 46.7%; viability, T/C [12]: 26.7%; viability, T/C [13]: 92.9%; viability, T/C [14]: 80.3%; viability, T/C [15]: 71.7%; viability, T/C [16]: 57.1%; viability, T/C [17]: 40.4%; viability, T/C [18]: 30%; viability, T/C [19]: 87%; viability, T/C [20]: 66.3%; viability, T/C [21]: 72.4%; viability, T/C [22]: 82.6%; viability, T/C [23]: 37.3%; viability, T/C [24]: 23%; viability, T/C [25]: 98%; viability, T/C [26]: 76.7%; viability, T/C [27]: 65.5%; viability, T/C [28]: 49%; viability, T/C [29]: 37.8%; viability, T/C [30]: 29.1%; viability, T/C [31]: 101%; viability, T/C [32]: 71.3%; viability, T/C [33]: 68.5%; viability, T/C [34]: 50.2%; viability, T/C [35]: 38.3%; viability, T/C [36]: 30.4%

What does the source list for COc1cc2cc(C(=O)CCC(=O)O)sc2cc1OC + Nc1ccc(C#CCN(C(=O)Cc2ncc(C(F)(F)F)cc2C(F)(F)F)c2ccc(F)cc2)nn1?
IC50 (second compound 0.0316 µM): > 10000 nM; IC50 (second compound 0.1 µM): > 10000 nM; IC50 (second compound 0.316 µM): > 10000 nM; IC50 (second compound 1 µM): > 10000 nM; IC50 (second compound 3.16 µM): > 10000 nM; IC50 (second compound 10 µM): > 10000 nM; viability, T/C [1]: 91.1%; viability, T/C [2]: 98.4%; viability, T/C [3]: 90.1%; viability, T/C [4]: 110%; viability, T/C [5]: 136%; viability, T/C [6]: 99.3%; viability, T/C [7]: 99.4%; viability, T/C [8]: 97.4%; viability, T/C [9]: 101%; viability, T/C [10]: 86.8%; viability, T/C [11]: 105%; viability, T/C [12]: 105%; viability, T/C [13]: 93.1%; viability, T/C [14]: 101%; viability, T/C [15]: 114%; viability, T/C [16]: 110%; viability, T/C [17]: 108%; viability, T/C [18]: 110%; viability, T/C [19]: 96.1%; viability, T/C [20]: 97%; viability, T/C [21]: 104%; viability, T/C [22]: 95.9%; viability, T/C [23]: 103%; viability, T/C [24]: 112%; viability, T/C [25]: 102%; viability, T/C [26]: 107%; viability, T/C [27]: 99.7%; viability, T/C [28]: 112%; viability, T/C [29]: 117%; viability, T/C [30]: 108%; viability, T/C [31]: 99.8%; viability, T/C [32]: 109%; viability, T/C [33]: 98.1%; viability, T/C [34]: 95.3%; viability, T/C [35]: 93%; viability, T/C [36]: 91.7%

Which results are given for Cn1ncnc1[C@H]1c2n[nH]c(=O)c3cc(F)cc(c23)N[C@@H]1c1ccc(F)cc1 + Nc1ccc(C#CCN(C(=O)Cc2ncc(C(F)(F)F)cc2C(F)(F)F)c2ccc(F)cc2)nn1?
IC50 (second compound 0.0316 µM): 38.9 nM; IC50 (second compound 0.1 µM): 43.5 nM; IC50 (second compound 0.316 µM): 21.4 nM; IC50 (second compound 1 µM): 37.5 nM; IC50 (second compound 3.16 µM): 48.9 nM; IC50 (second compound 10 µM): 26.5 nM; viability, T/C (second compound 0.0316 µM, first compound 0.000316 µM): 97.7%; viability, T/C (second compound 0.0316 µM, first compound 0.001 µM): 82.9%; viability, T/C (second compound 0.0316 µM, first compound 0.00316 µM): 85%; viability, T/C (second compound 0.0316 µM, first compound 0.01 µM): 63.8%; viability, T/C [1]: 55.5%; viability, T/C [2]: 35%; viability, T/C (second compound 0.1 µM, first compound 0.000316 µM): 79.9%; viability, T/C (second compound 0.1 µM, first compound 0.001 µM): 89.2%; viability, T/C (second compound 0.1 µM, first compound 0.00316 µM): 76.1%; viability, T/C (second compound 0.1 µM, first compound 0.01 µM): 69.5%; viability, T/C [7]: 58.7%; viability, T/C [8]: 30.9%; viability, T/C (second compound 0.316 µM, first compound 0.000316 µM): 107%; viability, T/C (second compound 0.316 µM, first compound 0.001 µM): 92.5%; viability, T/C (second compound 0.316 µM, first compound 0.00316 µM): 64.8%; viability, T/C (second compound 0.316 µM, first compound 0.01 µM): 64.2%; viability, T/C [13]: 47.4%; viability, T/C [14]: 31.7%; viability, T/C (second compound 1 µM, first compound 0.000316 µM): 94.8%; viability, T/C (second compound 1 µM, first compound 0.001 µM): 93.2%; viability, T/C (second compound 1 µM, first compound 0.00316 µM): 69.2%; viability, T/C (second compound 1 µM, first compound 0.01 µM): 65.6%; viability, T/C [19]: 55.2%; viability, T/C [20]: 37.1%; viability, T/C (second compound 3.16 µM, first compound 0.000316 µM): 87.3%; viability, T/C (second compound 3.16 µM, first compound 0.001 µM): 93.8%; viability, T/C (second compound 3.16 µM, first compound 0.00316 µM): 63.9%; viability, T/C (second compound 3.16 µM, first compound 0.01 µM): 67.4%; viability, T/C [25]: 58%; viability, T/C [26]: 41%; viability, T/C (second compound 10 µM, first compound 0.000316 µM): 107%; viability, T/C (second compound 10 µM, first compound 0.001 µM): 80.1%; viability, T/C (second compound 10 µM, first compound 0.00316 µM): 80.5%; viability, T/C (second compound 10 µM, first compound 0.01 µM): 61.6%; viability, T/C [31]: 49.7%; viability, T/C [32]: 32.4%
